# Experimental data reported in US20250108036A1, “COMPOSITIONS FOR REMOVING SENESCENT CELLS AND USES THEREOF” (LIFECEUTIX CO., LTD., priority 2021, published 2025).
# Read-outs that look alike come from different tables or passages of the source.
# Legend:
# Type in all cases: cell-based, human
# [1] = test system: foreskin cells in which senescence was induced by doxorubicin; experiment: CellTiter-Glo cell viability of doxorubicin-induced senescent foreskin cells (Examples 1-2, 10, 11, 13; Tables 4, 63, 65); settings: for viability at 1.1 µM / viability at 10 µM / viability at 30 µM / viability at 90 µM / viability at […]: Homo sapiens, 72 h, read-out: Survival (%); for viability at 90 µM: 90 μM test compound
# Experimental: After 3 days, cell viability was measured using CellTiter-Glo Luminescent Cell Viability Assay (Promega) or light microscopy.
# HMGN1 [2] = experiment: HMGN1 ELISA in culture medium of foreskin cells (Examples 10, 11; Tables 62, 63, 64); settings: Homo sapiens; for activity at 90 µM: 90 μM test compound; for activity at 30 µM: read-out: HMGN1
# HMGN1 [3] = experiment: HMGN1 ELISA in culture medium of A549 cancer cells (Example 12, Table 66); settings: Homo sapiens; for activity at 90 µM: test compound 90 μM
# A549 = experiment: CellTiter-Glo cell viability of senescent A549 cancer cells (Example 12, Table 67); settings: for Survival (%): doxorubicin-induced senescent A549 cancer cells
# [4] = 1.1 μM test compound, doxorubicin-induced senescent foreskin cells, CellTiter-Glo, 0 μM = 100
# [5] = 10 μM test compound, doxorubicin-induced senescent foreskin cells, CellTiter-Glo, 0 μM = 100
# [6] = 30 μM test compound, doxorubicin-induced senescent foreskin cells, CellTiter-Glo, 0 μM = 100
# [7] = doxorubicin-induced senescent foreskin cells, CellTiter-Glo, 0 μM = 100
# [8] = […] test compound, doxorubicin-induced senescent foreskin cells, CellTiter-Glo, 0 μM = 100
# [9] = doxorubicin-treated foreskin cells, DMSO = 100
# [10] = Homo sapiens, A549, doxorubicin-induced senescent A549 cancer cells, 1.1 μM test compound, CellTiter-Glo, read-out: Survival (%)
# [11] = Homo sapiens, A549, doxorubicin-induced senescent A549 cancer cells, 10 μM test compound, CellTiter-Glo, read-out: Survival (%)
# [12] = Homo sapiens, A549, doxorubicin-induced senescent A549 cancer cells, 30 μM test compound, CellTiter-Glo, read-out: Survival (%)
# [13] = Homo sapiens, A549, doxorubicin-induced senescent A549 cancer cells, 90 μM test compound, CellTiter-Glo, read-out: Survival (%)
# [14] = A549, doxorubicin-induced senescent A549 cells, ELISA, DMSO = 100, read-out: HMGN1 (amount of HMGN1 secreted in the cell culture)
# [15] = 30 μM test compound, doxorubicin-treated foreskin cells, DMSO = 100
# [16] = A549, doxorubicin-induced senescent A549 cells, test compound 30 μM, ELISA, DMSO = 100, read-out: HMGN1 (amount of HMGN1 secreted in the cell culture)
# [17] = Homo sapiens, A549, read-out: Survival (%)
Compound,"viability at 1.1 µM [1, 4] [%]","viability at 10 µM [1, 5] [%]","viability at 30 µM [1, 6] [%]","viability at […] [1, 8] [%]",viability at 1.1 µM (A549; [10]) [%],viability at 10 µM (A549; [11]) [%],viability at 30 µM (A549; [12]) [%],activity at 30 µM (HMGN1 [2]; [15]) [%],activity at 30 µM (HMGN1 [3]; [16]) [%],other results
"C=C(C)[C@@H]1CC[C@]2(C(=O)O)CC[C@]3(C)[C@H](CC[C@@H]4[C@@]5(C)CC[C@H](O)C(C)(C)[C@@H]5CC[C@]43C)[C@@H]12 [LX-2005, Betulinic acid]",97.5,87.2,73.8,93.3,102,95.7,82.9,–,–,"viability at 90 µM [1, 7]: 31.5%; activity at 90 µM (HMGN1 [2]; [9]): 212%; activity at 270 µM (HMGN1 [3]; A549, doxorubicin-induced senescent A549 cells, test compound 270 μM, ELISA, DMSO = 100, read-out: HMGN1 (amount of HMGN1 secreted in the cell culture)): 252%; viability at 90 µM (A549; [13]): 57.2%; viability at 270 µM (A549; Homo sapiens, A549, doxorubicin-induced senescent A549 cancer cells, 270 μM test compound, CellTiter-Glo, read-out: Survival (%)): 5.3%"
"CCCCC/C=C\C/C=C\CCCCCCCC(=O)O [LX-2703, Linoleic acid]",100,89.5,55.2,100,101,99.6,71.5,–,–,"viability at 90 µM [1, 7]: 35.2%; activity at 90 µM (HMGN1 [2]; [9]): 218%; activity at 90 µM (HMGN1 [3]; [14]): 202%; viability at 90 µM (A549; [13]): 28.3%"
CC1=CCC(c2cc(C(=O)C3CCC(c4ccc(C#N)cc4)CC3)c(C)cc2C2CCC2)=C1 (centres unmarked) [LX-305],101,91,78,97.2,99.2,63.1,41,–,–,"viability at 90 µM [1, 7]: 23.2%; activity at 90 µM (HMGN1 [2]; [9]): 199%; activity at 90 µM (HMGN1 [3]; [14]): 227%; viability at 90 µM (A549; [13]): 13.3%"
"CN(C)c1nc(N(C)C)nc(N(C)C)n1 [LX-501, Altretamine, reference compound]",103,98.9,85.2,105,99.8,103,99.5,–,–,"viability at 90 µM [1, 7]: 53.7%; activity at 90 µM (HMGN1 [2]; [9]): 168%; activity at 90 µM (HMGN1 [3]; [14]): 233%; viability at 90 µM (A549; [13]): 13.1%"
CC(O)[C@]1(C)C(=O)C(C#N)=C[C@]2(C)C3=CC(=O)[C@]45OC(=O)[C@@]6(CCC(C)(C)C[C@H]64)CC[C@@]5(C)[C@]3(C)CC[C@@H]12 (some centres unmarked) [LX-2501],11.1,–,–,–,14.4,–,–,309,333,–
C#CC(=O)N1[C@@H](CCCC)Cc2cc(CO)ccc2[C@@H]1c1ccc(NC23CC4CC(CC(C4)C2)C3)cc1 [LX-421],3.4,–,–,–,3.8,–,–,293,328,–
"C=C1C(=O)C2CCN1CC2 [LX-702, 2-Methylene-3-quinuclidinone]",–,–,–,–,–,–,–,–,–,"viability at 1.1 µM [1]: 82.1%; viability at 10 µM [1]: 6.5%; activity at 30 µM (HMGN1 [2]): 278%; activity at 30 µM (HMGN1 [3]; A549, read-out: HMGN1 (amount of HMGN1 secreted in the cell culture)): 305%; viability at 1.1 µM (A549; [17]): 87.3%; viability at 10 µM (A549; [17]): 33.4%; viability at 30 µM (A549; [17]): 3%"
CN(C)CCn1cc(-c2ccc(F)cc2)c(-n2cccc2)n1 [LX-909],–,–,–,–,–,–,–,267,–,"Survival (%) [1, 4]: 100.5%; Survival (%) [1, 5]: 75.1%; Survival (%) [1, 6]: 2.8%; Survival (%) [1, 8]: 85.5%; activity at 90 µM (HMGN1 [3]; [14]): 240%; Survival (%) (A549; 1.1 μM test compound, CellTiter-Glo): 96.7%; Survival (%) (A549; 10 μM test compound, CellTiter-Glo): 85.6%; Survival (%) (A549; 30 μM test compound, CellTiter-Glo): 77.2%; Survival (%) (A549; 90 μM test compound, CellTiter-Glo): 17.5%"
"Nc1cccc2c1CN(C1CCC(=O)NC1=O)C2=O (centres unmarked) [LX-3207, Lenalidomide, reference compound]",99.3,56.4,17.9,91.9,101,76.4,18.9,219,222,–
CC1(C)CC[C@]2(CO)CC[C@]3(C)[C@H](C(=O)C=C4[C@@]5(C)[C@H]6O[C@@]6(C#N)C(=O)C(C)(C)[C@@H]5CC[C@]43C)[C@@H]2C1 [LX-2318],78.3,–,–,12.1,94.1,31.1,–,264,278,–
C[C@H]1C(=O)C(C#N)=C[C@@]2(C)c3c(c(-c4ccccc4)nn3-c3ccc(-c4cccc(CO)c4)cc3)CC[C@H]12 [LX-2505],78.6,–,–,36.9,100,18.6,–,248,308,–
"Clc1ccc(C(c2ccccc2Cl)C(Cl)Cl)cc1 (centres unmarked) [LX-1301, Mitotane, reference compound]",104,83,0.4,106,106,101,17.5,281,318,–
C[C@@H]1[C@H]2[C@H]3C(=O)C=C4[C@@]5(C)C=C(C#N)C(=O)C(C)(C)[C@@H]5CC[C@@]4(C)[C@]3(C)CC[C@@]2(CO)CC[C@H]1C [LX-2512],38.2,–,–,3.2,88.5,11.7,–,276,274,–
"C[C@H](CN1CCCC1)C(=O)c1ccc(C(F)(F)F)cc1 [LX-1402, Lanperisone, reference compound]",101,15.6,2.1,97.6,97.6,81.1,29.5,304,248,–
"O=C1C(O)=C([C@H]2CC[C@H](c3ccc(Cl)cc3)CC2)C(=O)c2ccccc21 [LX-2802, Atovaquone, reference compound]",102,58.4,17.2,81.2,101,74.1,35.7,268,279,–
C[C@@H]1Cc2c([nH]c3ccccc23)[C@H](c2ccc(F)cc2)[C@H]1C#N [LX-418],5.1,–,–,–,17.7,–,–,284,286,–
